Experimental data: PubChem BioAssay (NCI)
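In this assay, cells in 96-well plates receive the compound at five concentrations for 48 hours. Endpoints are linearly interpolated between the surrounding concentrations. GI50: concentration for 50% inhibition of growth. TGI: total growth inhibition.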

What was measured:
Test in all cases: NCI anticancer screen, dose series, 48 h
DLD-1 colon = system: DLD-1 colon
HOP-18 NSCLC = system: HOP-18 NSCLC
LXFL 529 NSCLC = system: LXFL 529 NSCLC
M19-MEL melanoma = system: M19-MEL melanoma
XF 498 CNS = system: XF 498 CNS
MDA-N = system: MDA-N
RXF-631 renal = system: RXF-631 renal

| Compound | TGI (DLD-1 colon) [µM] | TGI (HOP-18 NSCLC) [µM] | TGI (LXFL 529 NSCLC) [µM] | TGI (M19-MEL melanoma) [µM] | TGI (XF 498 CNS) [µM] | TGI (MDA-N) [µM] | TGI (RXF-631 renal) [µM] | GI50 (MDA-N) [µM] |
| --- | --- | --- | --- | --- | --- | --- | --- | --- |
| COc1c(C(=O)c2ccc([N+](=O)[O-])cc2)cc(C(C)(C)C)cc1C(C)(C)C | > 100 | > 100 | > 100 | > 100 | 55.1 |  |  |  |
| COc1cc(OC)c(/C=C\c2ccnc3ccccc23)c(OC)c1 |  |  |  |  |  | 2.03 |  |  |
| CCOC(=O)CSC(=O)NCCCl | > 100 |  | > 100 |  |  |  |  |  |
| CC1=CC(=C(c2ccc(N)cc2)c2ccc(N)cc2)C=CC1=N | > 100 |  | 13.6 | 14.5 | 10.3 | > 40.9 |  |  |
| COc1ccc(C2CC(c3cc(C)ccc3O)=NC(N)=N2)cc1 (stereo unspecified) | > 100 | > 100 | > 100 | > 100 | > 100 |  |  |  |
| CC1(C)CCC2=C(O1)c1ccccc1C(=O)C2=O |  |  |  |  |  | 0.363 |  |  |
| CCOC(=O)C1C2CCC(C2)C1(CCl)C(=O)OCC (stereo unspecified) |  | > 100 | > 100 | > 100 |  |  | > 100 |  |
| N#Cc1c2c(c(N=P(c3ccccc3)(c3ccccc3)c3ccccc3)n3c1nc1ccccc13)CCCC2 | > 100 | > 100 | > 100 | 67.8 |  |  | > 100 |  |
| CCCCCCCCCCCCCC(=O)OCC1OC(n2cc(F)c(=O)[nH]c2=O)C(NC(=O)OCc2ccccc2)C(OC(=O)CCCCCCCCCCCCC)C1O (stereo unspecified) | > 100 | > 100 | > 100 | > 100 | > 100 |  | > 100 |  |
| NS(=O)(=O)c1ccc(NC2=CC(=O)C(=O)c3ccccc32)cc1 | > 100 | > 100 | > 100 | > 100 |  |  |  |  |
| NNC(=O)CNC(=O)c1ccc(Cl)cc1Cl | > 100 | > 100 | > 100 | > 100 | > 100 |  |  |  |
| O=C1c2ccccc2C(=O)N1CCN(CCN1C(=O)c2ccccc2C1=O)Cn1cccn1 | > 100 |  | > 100 | > 100 | > 100 |  | > 100 |  |
| NC(=O)c1ccc(NN=O)nc1 |  |  |  |  |  | > 100 |  |  |
| CC(=O)c1ccc(OCC(O)CO)cc1 (stereo unspecified) | > 100 | > 100 | > 100 | > 100 |  |  | > 100 |  |
| CN(C)CCNC(=O)C(C)(C)Oc1ccc(C(=O)c2ccc(Cl)cc2)cc1Cl |  |  |  |  |  | 19.8 |  | 6.48 |
| O=CNc1ncn[nH]1 |  |  |  |  |  | > 100 |  |  |
| CC1CC(=O)Nc2ccccc2N1C(=O)CN1CCC(CCCCN(C)C)CC1 (stereo unspecified) | > 100 | > 100 | > 100 | > 100 |  |  | > 100 |  |
| CC1SC2=NC3=C(c4ccccc4C3=O)C(c3ccc(Cl)cc3)N2C1=O (stereo unspecified) | > 100 |  | > 100 | > 100 | > 100 |  | > 100 |  |
| CC1=NOC(=O)/C1=C/c1cccc2ccccc12 | > 100 | > 100 | > 100 | > 100 |  |  |  |  |
